# Literature values as cited in paper PMC7385171, “Molecular engineering of safe and efficacious oral basal insulin” (Nature Communications, 2020).
# Conditions: man, 8-week study; oral for the analogue, SC for insulin glargine
substance,measurement,value
insulin glargine,coefficient of variation of fasting plasma glucose,17.5%
